{"source": "patent US20060057628A1", "about": "“Method for prognosticating the progress of breast cancer and compounds useful for prevention or treatment thereof” (priority 2003, published 2006)", "key": {"17HSD type-2 enzyme": {"target": "T1, 17HSD type-2 enzyme (Homo sapiens, UniProt P37059)", "T1 construct": "expressed in transfected cells; host or cells: MCF-7 cells stably expressing 17HSD type 2", "T1 sequence (P37059 1-387)": "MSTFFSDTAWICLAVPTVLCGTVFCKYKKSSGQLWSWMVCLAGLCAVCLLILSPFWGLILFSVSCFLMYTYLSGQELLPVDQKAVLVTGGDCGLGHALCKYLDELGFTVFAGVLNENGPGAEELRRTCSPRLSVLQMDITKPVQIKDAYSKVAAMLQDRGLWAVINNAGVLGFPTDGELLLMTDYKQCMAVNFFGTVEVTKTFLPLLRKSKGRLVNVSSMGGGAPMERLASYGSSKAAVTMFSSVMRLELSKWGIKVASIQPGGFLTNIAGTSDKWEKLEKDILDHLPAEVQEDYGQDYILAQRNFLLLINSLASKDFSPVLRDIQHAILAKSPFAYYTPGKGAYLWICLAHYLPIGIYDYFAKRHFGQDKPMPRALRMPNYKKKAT", "assay": "17HSD type 2 inhibition in MCF-7 cells stably expressing 17HSD type 2 (HPLC detection)", "type": "cell-based", "conditions": "MCF-7 cells expressing 17HSD type 2; concentration not given", "source_text": "(§1) The tested compounds (about 1000 selected different compounds) were screened in respect of 17HSD enzyme activities according to the following method:\n(§2) The compounds were screened in respect of 17HSD enzyme activities in vitro on two established MCF-7 cell lines, each stably expressing one 17HSD isoenzyme, either 17HSD type 1 or 17HSD type 2, but not the other one. The interconversion of substrate by each isoenzyme and the HSD-inhibiting activity of chemical compounds in these cell lines was detected by HPLC system (Miettinen et al., Int J Cancer (1996) 68, 600-604).\n(§3) Varying amounts of the test compounds were incubated in the growth medium of the 17HSD expressing cells together with tritium labeled substrate (estrone for 17HSD type 1 enzyme; 20 nM). The medium samples were removed after exact incubation time and the reaction was stopped by deepfreezing. The samples were analyzed by HPLC-coupled flow scintillation analysis. The 17HSD-inhibiting activity of the test compounds was compared to known reference compound apigenin and to a negative control."}, "17HSD type 1": {"target": "T2, 17HSD type 1 (Homo sapiens, UniProt P14061)", "T2 sequence (P14061 1-328)": "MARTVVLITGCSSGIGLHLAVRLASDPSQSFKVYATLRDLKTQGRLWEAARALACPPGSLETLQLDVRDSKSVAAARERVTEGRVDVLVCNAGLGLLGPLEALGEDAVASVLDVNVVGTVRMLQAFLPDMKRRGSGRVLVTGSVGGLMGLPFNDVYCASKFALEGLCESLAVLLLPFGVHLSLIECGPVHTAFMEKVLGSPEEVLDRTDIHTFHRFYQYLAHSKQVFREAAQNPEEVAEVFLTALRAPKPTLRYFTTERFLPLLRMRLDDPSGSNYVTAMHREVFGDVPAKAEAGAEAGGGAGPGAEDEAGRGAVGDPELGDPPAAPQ", "assay": "17HSD type 1 inhibition in MCF-7 cells stably expressing 17HSD type 1 (HPLC detection of tritium labeled estrone conversion)", "type": "cell-based", "set-up": "expressed in transfected cells; host or cells: MCF-7 cells stably expressing 17HSD type 1", "conditions": "MCF-7 cells expressing 17HSD type 1, substrate estrone 20 nM", "source_text": "as §1, §2, §3"}}}
{"smiles": "O=CC1=C(Sc2ccccc2)c2sc3nc4n(c(=O)c3c2CC1)CCCCC4", "note": "[Compound A]", "values": [{"measurement": "inhibition of the 17HSD type-2 enzyme", "setting": "17HSD type-2 enzyme", "value": "did not show any inhibition effect"}, {"measurement": "inhibition of the 17HSD type 1 enzyme", "setting": "17HSD type 1; concentration 1 μM", "value": 80, "unit": "%"}, {"measurement": "inhibition of the 17HSD type 1 enzyme", "setting": "17HSD type 1; concentration 10 μM", "value": 95, "unit": "%"}]}
{"smiles": "O=c1cc(-c2ccc(O)cc2)oc2cc(O)cc(O)c12", "note": "[apigenin]", "values": [{"measurement": "inhibition of the 17HSD type-2 enzyme", "setting": "17HSD type-2 enzyme", "value": 5, "unit": "%"}, {"measurement": "inhibition at 1 µM", "setting": "17HSD type 1; MCF7, concentration 1 μM", "value": 48, "unit": "%"}]}
